Experimental data taken from patent US20060264460A1 (Wyeth, priority 2005, published 2006).

What follows are compounds tested against T1, human Cot/Tpl2 kinase (Homo sapiens, UniProt P41279) (assay: Tpl2/Cot kinase assay: GST-MEK1 phosphorylation detected by ELISA (DELFIA Eu)). Conditions: 0.4 nM Tpl2, 35 nM GST-MEK1, 50 uM ATP, 1 h at 30° C.
T1 construct: human Cot/Tpl2 kinase construct encoding residues 30-398; 6His (N); made in house; host or cells: Sf9 insect cells, baculovirus system (BD Biosciences)
T1 sequence (P41279 30-398): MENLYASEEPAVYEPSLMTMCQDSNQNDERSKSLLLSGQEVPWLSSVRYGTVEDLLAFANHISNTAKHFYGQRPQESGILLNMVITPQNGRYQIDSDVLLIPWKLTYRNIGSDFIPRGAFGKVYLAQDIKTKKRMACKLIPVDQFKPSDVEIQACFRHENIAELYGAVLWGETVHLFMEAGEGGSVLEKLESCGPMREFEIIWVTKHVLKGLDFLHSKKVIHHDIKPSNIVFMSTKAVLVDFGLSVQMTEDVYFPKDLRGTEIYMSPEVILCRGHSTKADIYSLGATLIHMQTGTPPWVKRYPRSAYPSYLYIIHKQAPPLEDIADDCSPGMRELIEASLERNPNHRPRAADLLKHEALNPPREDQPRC
Format: biochemical
Method in brief: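 Substrate phosphorylation (GST-MEK1 Ser217/221) quantified by DELFIA europium ELISA, yielding IC50 values. Reaction: 1 h at 30° C, pH 7.2 MOPS buffer, 50 uM ATP, 35 nM GST-MEK1, 0.4 nM monomeric His-Tpl2 purified from Sf9 cells, compounds at 1% final DMSO; stopped with EDTA.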
With `CSc1ncc(CNc2cc(Cl)c3ncc(C#N)c(Nc4ccc(F)c(Cl)c4)c3c2)cn1` [Example 281, 8-Chloro-4-[(3-chloro-4-fluorophenyl)amino]-6-({[2-(methylthio)pyrimidin-5-yl]methyl]amino)quinoline-3-carbonitrile] the IC50 was 42 nM.
`CS(=O)(=O)c1nccc(CNc2cc(Cl)c3ncc(C#N)c(Nc4ccc(F)c(Cl)c4)c3c2)n1` [Example 282, 8-Chloro-4-[(3-chloro-4-fluorophenyl)amino]-6-({[2-(methylsulfonyl)pyrimidin-4-yl]methyl}amino)quinoline-3-carbonitrile] gave an IC50 of 23 nM.
`N#Cc1cnc2c(Cl)cc(NCCc3cnc[nH]3)cc2c1Nc1ccc(F)c(Cl)c1` [Example 283, 8-chloro-4-[(3-chloro-4-fluorophenyl)amino]-6-{[2-(1H-imidazol-5-yl)ethyl]amino}quinoline-3-carbonitrile] was tested, and the IC50 was 130 nM.
For `C[S+]([O-])c1cc(NCc2cnc[nH]2)cc2c(Nc3ccc(F)c(Cl)c3)c(C#N)cnc12` (stereo not shown) [Example 284, 4-[(3-chloro-4-fluorophenyl)amino]-6-[(1H-imidazol-5-ylmethyl)amino]-8-(methylsulfinyl)quinoline-3-carbonitrile], the IC50 was 20 nM.
For `CS(=O)(=O)c1cc(NCc2cnc[nH]2)cc2c(Nc3ccc(F)c(Cl)c3)c(C#N)cnc12` [Example 286, 4-[(3-chloro-4-fluorophenyl)amino]-6-[(1H-imidazol-5-ylmethyl)amino]-8-(methylsulfonyl)quinoline-3-carbonitrile], the IC50 was 190 nM.
`CSc1cc(NCc2cnc[nH]2)cc2c(Nc3ccc(F)c(Cl)c3)c(C#N)cnc12` [Example 287, 4-[(3-chloro-4-fluorophenyl)amino]-6-[(1H-imidazol-5-ylmethyl)amino]-8-(methylthio)quinoline-3-carbonitrile] showed an IC50 of 340 nM.
`COc1ccc(Cn2cc(CNc3cc(Br)c4ncc(C#N)c(Nc5ccc(F)c(Cl)c5)c4c3)nn2)cc1` [Example 289] was tested, and the IC50 was 203 nM.
For `N#Cc1cnc2c(Br)cc(NCc3nc(-c4ccccc4)n[nH]3)cc2c1Nc1ccc(F)c(Cl)c1` [Example 290, 8-Bromo-4-(3-chloro-4-fluoro-phenylamino)-6-[(5-phenyl-2H-[1,2,4]triazol-3-ylmethyl)-amino]-quinoline-3-carbonitrile], the IC50 was greater than 40000 nM.
Work on `N#Cc1cnc2c(Br)cc(NCc3cn(-c4ccc(C(=O)O)cc4)nn3)cc2c1Nc1ccc(F)c(Cl)c1` [Example 292, 4-(4-{[8-Bromo-4-(3-chloro-4-fluoro-phenylamino)-3-cyano-quinolin-6-ylamino]-methyl}-[1,2,3]triazol-1-yl)-benzoic acid] yielded an IC50 of 3.5 nM.
For `CCOC(OCC)c1[nH]nnc1CNc1cc(Br)c2ncc(C#N)c(Nc3ccc(F)c(Cl)c3)c2c1` [Example 293, 8-Bromo-4-(3-chloro-4-fluoro-phenylamino)-6-[(5-diethoxymethyl-1H-[1,2,3]triazol-4-ylmethyl)-amino]-quinoline-3-carbonitrile], the IC50 was 13 nM.
`N#Cc1cnc2c(Br)cc(NCc3nn[nH]c3CO)cc2c1Nc1ccc(F)c(Cl)c1` [Example 294, 8-Bromo-4-(3-chloro-4-fluoro-phenylamino)-6-[(5-hydroxymethyl-1H-[1,2,3]triazol-4-ylmethyl)-amino]-quinoline-3-carbonitrile] gave an IC50 of 500 nM.
`N#Cc1cnc2c(Br)cc(NCc3nn[nH]c3CNCCO)cc2c1Nc1ccc(F)c(Cl)c1` [Example 295, 8-Bromo-4-(3-chloro-4-fluoro-phenylamino)-6-({5-[(2-hydroxy-ethylamino)-methyl]-1H-[1,2,3]triazol-4-ylmethyl}-amino)-quinoline-3-carbonitrile] showed an IC50 of 67 nM.
Work on `N#Cc1cnc2c(Br)cc(NCc3cn(CCN4CCCCC4)nn3)cc2c1Nc1ccc(F)c(Cl)c1` [Example 296, 8-Bromo-4-(3-chloro-4-fluoro-phenylamino)-6-{[1-(2-piperidin-1-yl-ethyl)-1H-[1,2,3]triazol-4-ylmethyl]-amino}-quinoline-3-carbonitrile] yielded an IC50 of 15 nM.
Compound `N#Cc1cnc2c(Br)cc(NCc3cn(CCN4CCOCC4)nn3)cc2c1Nc1ccc(F)c(Cl)c1` [Example 297, 8-Bromo-4-(3-chloro-4-fluoro-phenylamino)-6-{[1-(2-morpholin-4-yl-ethyl)-1H-[1,2,3]triazol-4-ylmethyl]-amino}-quinoline-3-carbonitrile] has an IC50 of 29 nM.
`N#Cc1cnc2c(Br)cc(NCc3cn(CC(=O)N4CCOCC4)nn3)cc2c1Nc1ccc(F)c(Cl)c1` [Example 298, 8-Bromo-4-(3-chloro-4-fluoro-phenylamino)-6-{[1-(2-morpholin-4-yl-2-oxo-ethyl)-1H-[1,2,3]triazol-4-ylmethyl]-amino}-quinoline-3-carbonitrile] showed an IC50 of 38 nM.
In the case of `N#Cc1cnc2c(Br)cc(NCc3ccoc3)cc2c1Nc1ccc(F)c(Cl)c1` [Example 299, 8-Bromo-4-(3-chloro-4-fluoro-phenylamino)-6-[(furan-3-ylmethyl)-amino]-quinoline-3-carbonitrile], the IC50 is reported as 480 nM.
Work on `N#Cc1cnc2c(Br)cc(NCc3csnn3)cc2c1Nc1ccc(F)c(Cl)c1` [Example 302, 8-Bromo-4-(3-chloro-4-fluoro-phenylamino)-6-[([1,2,3]thiadiazol-4-ylmethyl)-amino]-quinoline-3-carbonitrile] yielded an IC50 of 21 nM.
With `N#Cc1cnc2c(Br)cc(NCc3cn(CCN4C(=O)c5ccccc5C4=O)nn3)cc2c1Nc1ccc(F)c(Cl)c1` [Example 303, 8-Bromo-4-(3-chloro-4-fluoro-phenylamino)-6-({1-[2-(1,3-dioxo-1,3-dihydro-isoindol-2-yl)-ethyl]-1H-[1,2,3]triazol-4-ylmethyl}-amino)-quinoline-3-carbonitrile] the IC50 was greater than 40000 nM.
With `N#Cc1cnc2c(Br)cc(NCc3cn(CCN)nn3)cc2c1Nc1ccc(F)c(Cl)c1` [Example 304, 6-{[1-(2-Amino-ethyl)-1H-[1,2,3]triazol-4-ylmethyl]-amino}-8-bromo-4-(3-chloro-4-fluoro-phenylamino)-quinoline-3-carbonitrile] the IC50 was 17 nM.
Work on `CN1CCCC1CCn1cc(CNc2cc(Br)c3ncc(C#N)c(Nc4ccc(F)c(Cl)c4)c3c2)nn1` (stereo not shown) [Example 305, 8-Bromo-4-(3-chloro-4-fluoro-phenylamino)-6-({1-[2-(1-methyl-pyrrolidin-2-yl)-ethyl]-1H-[1,2,3]triazol-4-ylmethyl}-amino)-quinoline-3-carbonitrile] yielded an IC50 of 25 nM.
Work on `N#Cc1cnc2c(Br)cc(NCc3cn(CCN4CCCCCC4)nn3)cc2c1Nc1ccc(F)c(Cl)c1` [Example 307, 6-{[1-(2-Azepan-1-yl-ethyl)-1H-[1,2,3]triazol-4-ylmethyl]-amino}-8-bromo-4-(3-chloro-4-fluoro-phenylamino)-quinoline-3-carbonitrile] yielded an IC50 of 61 nM.
`N#Cc1cnc2c(Br)cc(NCc3cn(CCN4CCCC4)nn3)cc2c1Nc1ccc(F)c(Cl)c1` [Example 308, 8-Bromo-4-(3-chloro-4-fluoro-phenylamino)-6-{[1-(2-pyrrolidin-1-yl-ethyl)-1H-[1,2,3]triazol-4-ylmethyl]-amino}-quinoline-3-carbonitrile] showed an IC50 of 28 nM.
`N#Cc1cnc2c(CCC(=O)CO)cc(N)cc2c1Nc1ccc(F)c(Cl)c1` [Example 309, 6-amino-4-[(3-chloro-4-fluorophenyl)amino]-8-(4-hydroxy-3-oxobutyl)quinoline-3-carbonitrile] gave an IC50 of 7100 nM.
`N#Cc1cnc2c(CCC(=O)CO)cc(NCc3cnc[nH]3)cc2c1Nc1ccc(F)c(Cl)c1` [Example 310, 4-[(3-chloro-4-fluorophenyl)amino]-8-(4-hydroxy-3-oxybutyl)-6-[(1H-imidazol-5-ylmethyl)amino]quinoline-3-carbonitrile] showed an IC50 of 150 nM.
`N#Cc1cnc2c(Br)cc(NCc3[nH]nnc3-c3ccccc3)cc2c1Nc1ccc(F)c(Cl)c1` [Example 311, 8-bromo-4-[(3-chloro-4-fluorophenyl)amino]-6-{[(4-phenyl-1H-1,2,3-triazol-5-yl)methyl]amino}quinoline-3-carbonitrile] was tested, and the IC50 was 12 nM.
Compound `CCOC(=O)/C=C/c1cc(NCc2cnc[nH]2)cc2c(Nc3ccc(F)c(Cl)c3)c(C#N)cnc12` [Example 312, Ethyl(2E)-3-{4-[(3-chloro-4-fluorophenyl)amino]-3-cyano-6-[(1H-imidazol-5-ylmethyl)amino]quinolin-8-yl}acrylate] has an IC50 of 9700 nM.
Compound `N#Cc1cnc2c(CC(O)CO)cc(NCc3cnc[nH]3)cc2c1Nc1ccc(F)c(Cl)c1` (stereo not shown) [Example 314, 4-[(3-chloro-4-fluorophenyl)amino]-8-(2,3-dihydroxypropyl)-6-[(1H-imidazol-5-ylmethyl)amino]quinoline-3-carbonitrile] has an IC50 of 910 nM.
Work on `N#Cc1cnc2c(Br)cc(NCc3cn(C4CCNCC4)nn3)cc2c1Nc1ccc(F)c(Cl)c1` [Example 316, 8-bromo-4-[(3-chloro-4-fluorophenyl)amino]-6-{[(1-piperidin-4-yl-1H-1,2,3-triazol-4-yl)methyl]amino}quinoline-3-carbonitrile] yielded an IC50 of 10 nM.
Work on `CN1CCC(n2cc(CNc3cc(Br)c4ncc(C#N)c(Nc5ccc(F)c(Cl)c5)c4c3)nn2)CC1` [Example 317, 8-bromo-4-[(3-chloro-4-fluorophenyl)amino]-6-({[1-(1-methylpiperidin-4-yl)-1H-1,2,3-triazol-4-yl]methyl}amino)quinoline-3-carbonitrile] yielded an IC50 of 19 nM.
Work on `CC(O)Cc1nn[nH]c1CNc1cc(Br)c2ncc(C#N)c(Nc3ccc(F)c(Cl)c3)c2c1` (stereo not shown) [Example 318, 8-bromo-4-(3-chloro-4-fluorophenylamino)-6-((5-(2-hydroxypropyl)-3H-1,2,3-triazol-4-yl)methylamino)quinoline-3-carbonitrile] yielded an IC50 of 5.7 nM.
With `N#Cc1cnc2c(Br)cc(NCc3cn(CC(O)CN4CCOCC4)nn3)cc2c1Nc1ccc(F)c(Cl)c1` (stereo not shown) [Example 319, 8-bromo-4-[(3-chloro-4-fluorophenyl)amino]-6-({[1-(2-hydroxy-3-morpholin-4-ylpropyl)-1H-1,2,3-triazol-4-yl]methyl}amino)quinoline-3-carbonitrile] the IC50 was 210 nM.
